# “Also recorded” adds a separate entry of the source. Where a SMILES comes first, the peptide text is derived from it. Bridges are numbered along the chain shown (N, C = ends).
# Tests used:
# [1] = molecular target: T1, rKV1.1 (Rattus norvegicus, UniProt P10499); test: Two-electrode voltage-clamp, X. laevis oocytes expressing rKV1.1; format: cell-based; details: mean ± standard error
# T1 construct: expressed in transfected cells; host or cells: Xenopus laevis oocytes injected with cRNA
# Method: Stage V–VI of X. laevis oocytes were harvested by partial ovariectomy under anesthesia (3-aminobenzoic acid ethyl ester methanesulfonate salt, 0.5 g/L from Sigma-Aldrich Co., Saint Louis, MO, USA). The oocytes were defolliculated for 2 h by treatment with 2 mg/mL collagenase (Sigma-Aldrich Co., Saint Louis, MO, USA) in Ca^2+ free ND96 solution (in mM: 96 NaCl; 2 KCl; 1 MgCl2; 5 HEPES adjusted pH 7.4). For the expression of KV channels (KV1.1–KV1.6, KV2.1, KV3.1, KV4.2, KV4.3, hERG and the insect channel Shaker IR), the linearized plasmids were transcribed using the T7 or SP6 mMessage-mMachine transcription kit (Ambion, Austin, TX, USA). Oocytes were injected with 50 nL of cRNA at a concentration of 1 ng/nL using a microinjector (Drummond Scientific, Broomall, PA, USA). The oocytes were maintained in a ND96 solution (in mM: 96 NaCl, 2 KCl, 1.8 CaCl2, 2 MgCl2 and 5 HEPES; adjusted pH 7.4), supplemented with 50 µg/mL gentamicin sulfate.
# Two-electrode voltage-clamp recordings were performed at room temperature (18–22 °C) using a Geneclamp 500 amplifier (Molecular Devices, Sunnyvale, CA, USA) controlled by a pClamp data acquisition system (Axon Instruments, Union City, CA, USA). Whole-cell currents from oocytes were recorded from 1 to 3 days after injection. Bath solution was the same ND96 solution described above. Voltage and current electrodes were filled with 3 M KCl. Resistances of both electrodes were kept between 0.8 and 1.0 ΩM. The elicited currents were filtered at 500 Hz using a four-pole lowpass Bessel filter. Leak subtraction was performed using a −P/4 protocol. KV1.1–KV1.6 and Shaker IR currents were evoked by 500 ms depolarizations to 0 mV, followed by a 500 ms pulse to −50 mV, from a holding potential of −90 mV. Current traces of hERG channels were elicited by applying a +40 mV prepulse for 2 s, followed by a step to −120 mV for 2 s. KV3.1, KV 4.2 and KV4.3 currents were elicited by 500 ms pulses to +20 mV from a holding potential of −90 mV. To assess the concentration-response relationships, data were fitted with the Hill equation: y = 100/[1 + (EC50/[toxin])h] (1) where y is the amplitude of the toxin-induced effect, EC50 is the toxin concentration at half maximal efficacy, [toxin] is the toxin concentration and h is the Hill coefficient. In order to investigate the current-voltage relationship, current traces were evoked by 10 mV depolarization steps from a holding potential of −90 mV. […]
# Comparison of two sample means was made using a paired Student’s t test (p < 0.05). […] All data were analyzed using Clampfit 10.3 (Molecular Devices, Sunnyvale, CA, USA) and Origin 7.5 software (Origin Lab., Northampton, MA, USA).
# [2] = molecular target: T2, Shaker IR (Drosophila melanogaster, UniProt P08510, DEL6-46); test: Current-voltage (I-V) experiments, voltage dependence and reversibility on Shaker IR; format: cell-based, insect
# T2 construct: expressed in transfected cells; host or cells: Xenopus laevis oocytes injected with cRNA
# Method: In order to elucidate whether BcsTx-1 and -2 block the current through a physical obstruction of the Shaker IR channel pore or act as gating modifiers, current-voltage (I-V) experiments were performed. The currents were inhibited at the test potentials from −90 to 100 mV, and the inhibition was not associated with a change of the shape of the I-V relationship. The control curve and the curve in the presence of BcsTx1 (500 nM) were characterized by a V1/2 values of 20.85 ± 0.69 mV and 22.62 ± 0.73 mV, respectively. Moreover, the control curve and the curve in the presence of BcsTx2 (50 nM) were characterized by a V1/2 values of 18.49 ± 1.49 mV and 23.88 ± 1.57 mV, respectively. […] To date, type 1 sea anemone toxins have been described to act solely through a KV channel pore-blocking mechanism.
# Figure 8 Functional features of BcsTx1 and BcsTx2 on KV channels. (A, B) Dose-response curves of BcsTx1 and BcsTx2 on rKV1.1, rKV1.2, hKV1.3, rKV1.6 and Shaker IR channels. The curves were obtained by plotting the percentage blocked current as a function of increasing toxin concentrations. All data are presented as the mean ± standard error (n ≥ 3). (C, D) Current-voltage relationship for Shaker IR isoform in control condition and in the presence of BcsTx1 (500 nM) and BcsTx2 (50 nM). Current traces were evoked by 10 mV depolarization steps from a holding potential of −90 mV. Open circles indicates the V1/2 in control; closed circles indicate the addition of toxins. (E, F) Percentage of currents left after application of BcsTx1 (500 nM) and BcsTx2 (50 nM) on Shaker IR channel. […] (G, H) Representative experiment of the time course of Shaker IR current inhibition with BcsTx1 (500 nM) and BcsTx2 (3000 nM) and the reversibility hereof. Control (open square); washout (open circles). […] Plots shown are a representative of at least three individual experiments.
# Stage V–VI of X. laevis oocytes were harvested by partial ovariectomy under anesthesia (3-aminobenzoic acid ethyl ester methanesulfonate salt, 0.5 g/L from Sigma-Aldrich Co., Saint Louis, MO, USA). The oocytes were defolliculated for 2 h by treatment with 2 mg/mL collagenase (Sigma-Aldrich Co., Saint Louis, MO, USA) in Ca^2+ free ND96 solution (in mM: 96 NaCl; 2 KCl; 1 MgCl2; 5 HEPES adjusted pH 7.4). […]
# Two-electrode voltage-clamp recordings were performed at room temperature (18–22 °C) using a Geneclamp 500 amplifier (Molecular Devices, Sunnyvale, CA, USA) controlled by a pClamp data acquisition system (Axon Instruments, Union City, CA, USA). Whole-cell currents from oocytes were recorded from 1 to 3 days after injection. […]
# T2 sequence (P08510 with tags, fused parts or gaps DEL6-46): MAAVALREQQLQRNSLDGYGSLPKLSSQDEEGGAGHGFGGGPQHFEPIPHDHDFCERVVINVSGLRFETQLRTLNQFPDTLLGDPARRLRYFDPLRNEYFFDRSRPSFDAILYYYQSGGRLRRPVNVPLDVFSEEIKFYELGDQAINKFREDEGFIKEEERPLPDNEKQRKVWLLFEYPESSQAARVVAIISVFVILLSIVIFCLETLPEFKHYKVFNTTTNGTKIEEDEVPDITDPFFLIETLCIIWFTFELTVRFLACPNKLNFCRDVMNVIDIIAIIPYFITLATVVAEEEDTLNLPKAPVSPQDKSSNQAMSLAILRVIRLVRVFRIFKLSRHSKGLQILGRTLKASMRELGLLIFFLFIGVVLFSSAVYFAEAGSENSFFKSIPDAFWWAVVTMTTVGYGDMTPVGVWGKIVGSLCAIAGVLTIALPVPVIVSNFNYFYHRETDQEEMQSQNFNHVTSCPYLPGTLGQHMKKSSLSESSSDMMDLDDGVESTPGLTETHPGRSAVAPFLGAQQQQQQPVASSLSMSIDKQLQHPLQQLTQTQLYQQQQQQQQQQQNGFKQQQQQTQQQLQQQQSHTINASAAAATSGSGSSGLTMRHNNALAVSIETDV
# T1 sequence (P10499 whole entry): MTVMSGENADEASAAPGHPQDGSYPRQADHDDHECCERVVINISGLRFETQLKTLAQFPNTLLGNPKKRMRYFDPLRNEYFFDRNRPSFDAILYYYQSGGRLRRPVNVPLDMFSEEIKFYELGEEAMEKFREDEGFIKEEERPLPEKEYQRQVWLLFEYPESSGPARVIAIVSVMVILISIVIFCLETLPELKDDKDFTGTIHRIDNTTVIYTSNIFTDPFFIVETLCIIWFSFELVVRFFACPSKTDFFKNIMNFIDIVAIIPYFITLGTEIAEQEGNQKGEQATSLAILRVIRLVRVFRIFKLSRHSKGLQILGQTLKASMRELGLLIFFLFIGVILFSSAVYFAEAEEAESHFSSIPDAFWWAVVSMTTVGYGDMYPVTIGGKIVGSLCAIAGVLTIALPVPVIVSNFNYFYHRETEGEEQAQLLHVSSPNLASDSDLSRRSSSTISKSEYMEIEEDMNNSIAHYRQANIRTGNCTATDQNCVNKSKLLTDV
smiles,measurement,setting,value
"CC(C)C[C@@H]1NC(=O)[C@H](CCCCN)NC(=O)[C@H](C)NC(=O)[C@H](Cc2c[nH]cn2)NC(=O)[C@H](CCC(N)=O)NC(=O)[C@@H]2CSSC[C@@H]3NC(=O)[C@H](CC(N)=O)NC(=O)[C@H](C)NC(=O)[C@H](CCCNC(=N)N)NC(=O)[C@H](Cc4ccc(O)cc4)NC(=O)[C@H](CCCCN)NC(=O)[C@H](CCC(N)=O)NC(=O)[C@H](CO)NC(=O)[C@H](CC(N)=O)NC(=O)[C@H](CCCCN)NC(=O)[C@H](CSSC[C@H](NC(=O)[C@H]([C@@H](C)O)NC(=O)[C@H](CCCCN)NC(=O)[C@H](C)NC3=O)C(=O)NCC(=O)N3CCC[C@H]3C(=O)N[C@H](C(=O)O)CSSC[C@H](NC(=O)[C@H](C)N)C(=O)N[C@@H](CCCCN)C(=O)N[C@@H](CC(=O)O)C(=O)NCC(=O)N[C@@H](Cc3ccccc3)C(=O)N3CCC[C@H]3C(=O)N[C@@H]([C@@H](C)O)C(=O)N[C@@H](C)C(=O)N[C@@H]([C@@H](C)O)C(=O)N2)NC(=O)[C@H](CC(N)=O)NC(=O)CNC(=O)[C@H](C(C)C)NC1=O [BcsTx2] (H-ACKDGFPTATCQHAKLVGNCKNSQKYRANCAKTCGPC-OH; disulfide 2-37, 11-30, 20-34; C-terminus assumed)",inhibition at 3 µM,"[1]; 3 µM, n ≥ 3, read-out: inhibition of rKV1.1 current",96%
same,IC50,"[1]; TEVC, 18–22 °C, ND96 pH 7.4, 500 ms depolarizations to 0 mV from −90 mV, Hill fit, n ≥ 3",14.4 ± 2.61 nM
same,reversibility of blockage upon washout (in words),"[2]; Shaker IR, BcsTx1 500 nM, BcsTx2 3000 nM, washout","reversible, and a complete recovery was observed after washout; also recorded: binding was reversible upon washout"
same,onset of blockage (in words),"[2]; Shaker IR, time course, BcsTx1 500 nM, BcsTx2 3000 nM",Blockage occurred rapidly
same,voltage dependence of blockage (in words),"[2]; Shaker IR, −10 mV to 50 mV, BcsTx1 500 nM, BcsTx2 50 nM",non-dependence of voltage for the blockage; also recorded: no difference was observed in the degree of BcsTx1- and BcsTx2-induced blockage
same,"V1/2 of activation, Shaker IR","[2]; in presence of 50 nM toxin, control 18.49 ± 1.49 mV, Boltzmann fit",23.88 ± 1.57 mV

# From paper PMC3705364, “Biochemical and Electrophysiological Characterization of Two Sea Anemone Type 1 Potassium Toxins from a Geographically Distant Population of Bunodosoma caissarum” (Marine Drugs, 2013)
